Among the data in ChEMBL document CHEMBL5291721, “A preclinical secondary pharmacology resource illuminates target-adverse drug reaction associations of marketed drugs” (Nat Commun, 2023) are AC50 values, retold here.

Assay [1] deals with T1, Alpha-2A adrenergic receptor (Homo sapiens, UniProt P08913).
T1 sequence (P08913 whole entry): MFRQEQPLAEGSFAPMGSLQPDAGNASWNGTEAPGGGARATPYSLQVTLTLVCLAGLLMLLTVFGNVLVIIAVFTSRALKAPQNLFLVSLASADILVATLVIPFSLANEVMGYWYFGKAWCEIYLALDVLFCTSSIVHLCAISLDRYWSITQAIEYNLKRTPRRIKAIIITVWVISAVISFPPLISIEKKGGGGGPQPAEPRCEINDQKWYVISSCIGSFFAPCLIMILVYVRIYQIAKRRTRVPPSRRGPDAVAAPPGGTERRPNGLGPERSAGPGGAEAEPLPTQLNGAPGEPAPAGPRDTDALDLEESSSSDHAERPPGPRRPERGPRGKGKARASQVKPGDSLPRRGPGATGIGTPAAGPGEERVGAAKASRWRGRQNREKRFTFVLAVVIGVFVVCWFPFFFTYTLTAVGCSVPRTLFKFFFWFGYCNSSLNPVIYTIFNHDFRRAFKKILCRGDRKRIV
It counts as functional, cell-based.

Assay [2] deals with T2, Cholecystokinin receptor type A (Homo sapiens, UniProt P32238).
T2 sequence (P32238 whole entry): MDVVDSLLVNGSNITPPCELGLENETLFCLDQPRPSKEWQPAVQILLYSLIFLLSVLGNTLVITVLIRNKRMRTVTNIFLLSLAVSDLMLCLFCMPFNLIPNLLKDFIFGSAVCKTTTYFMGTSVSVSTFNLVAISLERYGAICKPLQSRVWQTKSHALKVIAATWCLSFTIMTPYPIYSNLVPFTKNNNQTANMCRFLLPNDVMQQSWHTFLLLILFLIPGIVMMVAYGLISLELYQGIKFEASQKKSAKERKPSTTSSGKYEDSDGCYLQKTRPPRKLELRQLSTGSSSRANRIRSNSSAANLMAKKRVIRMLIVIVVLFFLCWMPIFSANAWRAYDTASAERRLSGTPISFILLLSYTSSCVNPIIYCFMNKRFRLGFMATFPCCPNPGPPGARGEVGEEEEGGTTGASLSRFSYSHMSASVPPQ

Assay [3] addresses D(1A) dopamine receptor (Homo sapiens, UniProt P21728). Format: functional, cell-based.
The target of assay [4] is T3, 5-hydroxytryptamine receptor 1A (Homo sapiens, UniProt P08908).
T3 sequence (P08908 whole entry): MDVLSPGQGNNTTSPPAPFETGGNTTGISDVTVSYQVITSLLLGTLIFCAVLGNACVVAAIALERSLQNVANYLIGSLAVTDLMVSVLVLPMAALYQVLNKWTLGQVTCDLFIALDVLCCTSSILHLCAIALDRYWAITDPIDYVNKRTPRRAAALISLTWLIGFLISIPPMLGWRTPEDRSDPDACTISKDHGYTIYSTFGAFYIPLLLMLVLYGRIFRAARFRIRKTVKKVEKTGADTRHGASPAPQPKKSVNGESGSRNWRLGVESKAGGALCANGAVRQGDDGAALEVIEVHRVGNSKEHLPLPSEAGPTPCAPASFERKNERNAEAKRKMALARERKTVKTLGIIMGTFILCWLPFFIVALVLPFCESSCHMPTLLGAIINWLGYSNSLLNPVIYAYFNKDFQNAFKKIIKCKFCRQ
It counts as functional, cell-based.

Assay [5] addresses Voltage-gated inwardly rectifying potassium channel KCNH2 (Homo sapiens, UniProt Q12809). Format: functional.
In assay [6] the target is Melanocortin receptor 3 (Homo sapiens, UniProt P41968).
In assay [7] the target is T4, Equilibrative nucleoside transporter 1 (Homo sapiens, UniProt Q99808).
T4 sequence (Q99808 whole entry): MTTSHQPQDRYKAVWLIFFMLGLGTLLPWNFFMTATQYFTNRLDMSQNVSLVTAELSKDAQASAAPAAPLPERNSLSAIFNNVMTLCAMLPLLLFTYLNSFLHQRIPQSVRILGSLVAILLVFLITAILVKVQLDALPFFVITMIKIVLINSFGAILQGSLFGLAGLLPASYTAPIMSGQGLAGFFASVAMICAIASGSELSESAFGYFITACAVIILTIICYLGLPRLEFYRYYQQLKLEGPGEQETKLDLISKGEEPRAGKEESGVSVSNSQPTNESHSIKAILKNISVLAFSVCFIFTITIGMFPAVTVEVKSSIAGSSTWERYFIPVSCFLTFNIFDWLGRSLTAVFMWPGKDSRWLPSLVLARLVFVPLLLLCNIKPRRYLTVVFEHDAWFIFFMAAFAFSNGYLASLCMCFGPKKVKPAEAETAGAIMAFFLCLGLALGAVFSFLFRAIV

For assay [8], the target named is T5, Thromboxane A2 receptor (Homo sapiens, UniProt P21731).
T5 sequence (P21731 whole entry): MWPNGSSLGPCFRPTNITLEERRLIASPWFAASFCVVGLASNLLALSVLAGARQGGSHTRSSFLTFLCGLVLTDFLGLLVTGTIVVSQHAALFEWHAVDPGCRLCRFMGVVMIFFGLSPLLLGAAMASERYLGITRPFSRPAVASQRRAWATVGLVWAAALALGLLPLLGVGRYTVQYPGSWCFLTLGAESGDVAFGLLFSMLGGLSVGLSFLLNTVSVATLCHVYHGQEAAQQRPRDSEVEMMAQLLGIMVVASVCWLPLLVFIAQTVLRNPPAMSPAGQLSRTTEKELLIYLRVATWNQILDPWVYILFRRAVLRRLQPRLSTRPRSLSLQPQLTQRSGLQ

The target of assay [9] is Sodium-dependent dopamine transporter (Homo sapiens, UniProt Q01959).
Assay [10] addresses T6, Amine oxidase [flavin-containing] A (Homo sapiens, UniProt P21397).
T6 sequence (P21397 whole entry): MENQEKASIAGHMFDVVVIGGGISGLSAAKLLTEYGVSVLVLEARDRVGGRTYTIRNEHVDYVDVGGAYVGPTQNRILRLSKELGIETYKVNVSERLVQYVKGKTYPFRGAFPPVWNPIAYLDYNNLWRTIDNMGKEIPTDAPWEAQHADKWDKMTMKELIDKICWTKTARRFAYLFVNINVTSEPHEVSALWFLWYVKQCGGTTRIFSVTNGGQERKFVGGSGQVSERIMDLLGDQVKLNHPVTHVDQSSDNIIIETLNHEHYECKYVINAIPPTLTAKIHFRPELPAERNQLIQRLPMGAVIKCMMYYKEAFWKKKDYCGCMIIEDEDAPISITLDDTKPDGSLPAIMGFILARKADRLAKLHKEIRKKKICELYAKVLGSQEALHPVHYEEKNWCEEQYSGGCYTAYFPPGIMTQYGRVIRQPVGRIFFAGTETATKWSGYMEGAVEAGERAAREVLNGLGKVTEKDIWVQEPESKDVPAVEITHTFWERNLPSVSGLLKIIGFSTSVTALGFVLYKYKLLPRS
It counts as functional.
Also: assay procedure not described here.

Chain of D(1A) dopamine receptor (P21728 whole entry): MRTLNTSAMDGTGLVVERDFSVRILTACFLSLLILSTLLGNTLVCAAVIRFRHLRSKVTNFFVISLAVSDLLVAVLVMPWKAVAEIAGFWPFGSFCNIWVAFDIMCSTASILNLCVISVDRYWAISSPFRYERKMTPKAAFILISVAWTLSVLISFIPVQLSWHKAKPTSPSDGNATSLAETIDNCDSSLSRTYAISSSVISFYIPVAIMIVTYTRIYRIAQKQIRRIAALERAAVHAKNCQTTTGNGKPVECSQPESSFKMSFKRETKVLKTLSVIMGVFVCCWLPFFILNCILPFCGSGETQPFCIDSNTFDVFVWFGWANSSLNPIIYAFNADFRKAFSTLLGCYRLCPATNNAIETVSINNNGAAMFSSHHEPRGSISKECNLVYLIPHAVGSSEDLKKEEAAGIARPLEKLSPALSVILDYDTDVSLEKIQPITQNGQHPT
Chain of Voltage-gated inwardly rectifying potassium channel KCNH2 (Q12809 whole entry): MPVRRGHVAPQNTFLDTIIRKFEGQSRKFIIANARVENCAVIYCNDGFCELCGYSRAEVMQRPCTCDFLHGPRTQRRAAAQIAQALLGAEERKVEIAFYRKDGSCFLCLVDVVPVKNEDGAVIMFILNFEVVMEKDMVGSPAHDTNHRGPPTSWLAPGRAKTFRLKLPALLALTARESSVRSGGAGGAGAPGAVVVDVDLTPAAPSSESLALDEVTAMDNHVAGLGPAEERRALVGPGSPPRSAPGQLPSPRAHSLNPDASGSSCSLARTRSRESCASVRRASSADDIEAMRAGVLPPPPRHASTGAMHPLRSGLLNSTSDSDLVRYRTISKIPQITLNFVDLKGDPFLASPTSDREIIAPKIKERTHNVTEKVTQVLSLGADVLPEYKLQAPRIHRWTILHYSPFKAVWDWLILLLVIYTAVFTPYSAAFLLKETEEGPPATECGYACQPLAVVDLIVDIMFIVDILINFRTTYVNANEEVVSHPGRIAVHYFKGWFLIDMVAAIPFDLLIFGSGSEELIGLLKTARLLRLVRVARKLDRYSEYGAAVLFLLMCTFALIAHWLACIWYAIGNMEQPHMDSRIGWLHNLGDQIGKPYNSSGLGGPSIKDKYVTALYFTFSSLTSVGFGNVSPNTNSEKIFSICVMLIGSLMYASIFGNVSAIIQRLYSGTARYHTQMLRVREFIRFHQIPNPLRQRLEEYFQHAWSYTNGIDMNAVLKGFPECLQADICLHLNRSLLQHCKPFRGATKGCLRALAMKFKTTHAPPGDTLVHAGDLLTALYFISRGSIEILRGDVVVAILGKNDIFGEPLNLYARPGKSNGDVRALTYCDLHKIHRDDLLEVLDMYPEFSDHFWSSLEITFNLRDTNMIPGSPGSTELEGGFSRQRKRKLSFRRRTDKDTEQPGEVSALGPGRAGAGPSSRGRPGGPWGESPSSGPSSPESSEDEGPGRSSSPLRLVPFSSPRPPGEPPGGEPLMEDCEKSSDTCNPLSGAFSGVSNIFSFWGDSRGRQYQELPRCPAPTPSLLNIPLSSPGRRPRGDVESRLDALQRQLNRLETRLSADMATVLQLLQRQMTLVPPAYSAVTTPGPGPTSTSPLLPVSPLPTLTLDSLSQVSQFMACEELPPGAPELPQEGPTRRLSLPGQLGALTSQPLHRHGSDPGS
Chain of Sodium-dependent dopamine transporter (Q01959 whole entry): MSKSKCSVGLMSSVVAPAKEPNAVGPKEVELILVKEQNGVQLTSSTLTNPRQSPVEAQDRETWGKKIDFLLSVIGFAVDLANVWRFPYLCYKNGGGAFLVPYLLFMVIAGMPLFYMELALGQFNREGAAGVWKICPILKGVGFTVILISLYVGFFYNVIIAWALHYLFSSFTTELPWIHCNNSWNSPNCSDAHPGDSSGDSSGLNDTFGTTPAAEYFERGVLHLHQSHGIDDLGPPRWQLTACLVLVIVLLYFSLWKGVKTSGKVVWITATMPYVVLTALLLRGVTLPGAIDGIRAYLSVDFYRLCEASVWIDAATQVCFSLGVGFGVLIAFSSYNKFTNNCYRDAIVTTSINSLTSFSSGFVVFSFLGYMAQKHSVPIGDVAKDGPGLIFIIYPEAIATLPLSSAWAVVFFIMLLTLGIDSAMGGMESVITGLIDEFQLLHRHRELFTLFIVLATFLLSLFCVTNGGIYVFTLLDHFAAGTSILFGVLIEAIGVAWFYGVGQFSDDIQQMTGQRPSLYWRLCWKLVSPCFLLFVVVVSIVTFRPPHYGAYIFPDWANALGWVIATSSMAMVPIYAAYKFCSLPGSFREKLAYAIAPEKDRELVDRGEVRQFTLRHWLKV
Chain of Melanocortin receptor 3 (P41968 whole entry): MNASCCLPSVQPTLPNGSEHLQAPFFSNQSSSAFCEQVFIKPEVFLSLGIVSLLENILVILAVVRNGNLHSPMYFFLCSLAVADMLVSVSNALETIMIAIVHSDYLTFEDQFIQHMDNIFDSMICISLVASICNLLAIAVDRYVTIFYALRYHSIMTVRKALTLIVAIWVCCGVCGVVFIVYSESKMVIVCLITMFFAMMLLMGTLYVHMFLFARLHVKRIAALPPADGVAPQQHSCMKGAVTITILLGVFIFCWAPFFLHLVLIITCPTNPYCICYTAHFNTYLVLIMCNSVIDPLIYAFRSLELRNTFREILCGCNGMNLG

As for `O=C(O)c1ccc(NC(=O)[C@H](Cc2ccc(O)cc2)NC(=O)c2ccccc2)cc1` [BENTIROMIDE], the concentration at half-maximal activity (AC50) in [1] is greater than 10 µM; in [2], greater than 10 µM; in [3], greater than 10 µM; in assay [4], greater than 10 µM; in [5], greater than 30 µM; in assay [6], greater than 10 µM. Further, the half-maximal activity concentration (AC50) in assay [7], in [8], in assay [9] and in assay [10] was greater than 10 µM throughout.
Turning to `CC(C)[C@@H](C)/C=C/[C@@H](C)[C@H]1CC[C@H]2/C(=C/C=C3\C[C@@H](O)CC[C@@H]3C)CCC[C@]12C` [DIHYDROTACHYSTEROL], the half-maximal activity concentration (AC50) is greater than 10 µM in assay [1]; greater than 10 µM in [2]; greater than 10 µM in assay [3]; greater than 10 µM in [4]; greater than 30 µM in assay [5]; greater than 10 µM in assay [6]. Besides, the half-maximal activity concentration (AC50) in assay [7], in [8], in assay [9] and in [10] was greater than 10 µM throughout.
Take `Cc1cc(=O)n(-c2ccccc2)n1C` [ANTIPYRINE]: the AC50 was greater than 10 µM in [1]; greater than 30 µM in assay [2]; greater than 10 µM in assay [3]; greater than 30 µM in [4]; greater than 30 µM in assay [5]; greater than 30 µM in assay [6]. Also, the half-maximal activity concentration (AC50) is greater than 30 µM in assay [7], greater than 30 µM in assay [8], greater than 30 µM in [9] and greater than 10 µM in assay [10].
For the compound `CCC1(CCC(C)C)C(=O)NC(=O)NC1=O` [AMOBARBITAL], the AC50 in assay [1] was greater than 10 µM; in assay [2] it was greater than 10 µM; in [3], greater than 10 µM; in assay [4], greater than 10 µM; in assay [5], greater than 30 µM; in assay [6], greater than 10 µM. Further, the AC50 in assay [7], in assay [8], in assay [9] and in assay [10] was greater than 10 µM each time.
Take `O=C1Nc2ccc(Cl)cc2C(c2ccccc2Cl)=NC1O` (stereo not given) [LORAZEPAM]: the AC50 in assay [1] is greater than 10 µM; in assay [2], greater than 30 µM; in [3], greater than 30 µM; in assay [4], greater than 10 µM; in assay [5], greater than 30 µM; in assay [6] it was greater than 30 µM. Further, the AC50 was greater than 30 µM in assay [7], greater than 30 µM in assay [8], greater than 10 µM in assay [9] and greater than 10 µM in assay [10].
Turning to `CCOC(=O)c1ncn2c1CN(C)C(=O)c1cc(F)ccc1-2` [FLUMAZENIL], the AC50 in [1], in assay [2], in assay [3], in assay [4], in assay [5] and in assay [6] was greater than 30 µM throughout. For the same compound, the half-maximal activity concentration (AC50) in assay [7], in [8], in [9] and in [10] was greater than 30 µM throughout.
As to `Cc1ccnc2c1NC(=O)c1cccnc1N2C1CC1` [NEVIRAPINE], the AC50 is greater than 10 µM in assay [1]; greater than 30 µM in assay [2]; greater than 10 µM in assay [3]; greater than 10 µM in assay [4]; greater than 30 µM in [5]; greater than 30 µM in [6]. The concentration at half-maximal activity (AC50) in [7] is greater than 30 µM; in assay [8], greater than 30 µM; in assay [9], greater than 10 µM; in assay [10], greater than 10 µM.
In the case of `CC(C(=O)O)c1ccc2c(c1)CC(=O)c1ccccc1S2` (stereo not given) [ZALTOPROFEN], the concentration at half-maximal activity (AC50) in assay [1], in assay [2], in assay [3], in assay [4], in assay [5] and in assay [6] was greater than 30 µM in each case. Moreover, the half-maximal activity concentration (AC50) in assay [7], in assay [8], in [9] and in [10] was greater than 30 µM throughout.
As for `O=C(O)CCNC(=O)c1ccc(/N=N/c2ccc(O)c(C(=O)O)c2)cc1` [BALSALAZIDE], the half-maximal activity concentration (AC50) in assay [1], in assay [2], in assay [3], in [4], in assay [5] and in [6] was greater than 30 µM throughout. Also, the AC50 in assay [7] is 30 µM; in assay [8], greater than 30 µM; in [9] it was greater than 30 µM; in [10], greater than 30 µM.
Consider `Cc1cc(C)nc(NS(=O)(=O)c2ccc(N)cc2)n1` [SULFAMETHAZINE], for which the AC50 was greater than 10 µM in assay [1]; greater than 10 µM in assay [2]; greater than 30 µM in assay [3]; greater than 10 µM in assay [4]; greater than 30 µM in [5]; greater than 10 µM in assay [6]. Moreover, the half-maximal activity concentration (AC50) in assay [7] is greater than 10 µM; in assay [8], greater than 10 µM; in [9], greater than 10 µM; in assay [10] it was greater than 30 µM.
Consider `Cn1c(=O)c2c(ncn2CCOC(=O)C(C)(C)Oc2ccc(Cl)cc2)n(C)c1=O` [THEOFIBRATE], for which the AC50 in assay [1], in assay [2], in assay [3], in [4], in assay [5] and in assay [6] was greater than 30 µM each time. For the same compound, the concentration at half-maximal activity (AC50) in [7], in [8], in assay [9] and in assay [10] was greater than 30 µM throughout.
For the compound `NNC(=O)c1ccncc1` [ISONIAZID], the half-maximal activity concentration (AC50) in assay [1], in assay [2], in [3], in assay [4], in [5] and in assay [6] was greater than 30 µM throughout. Besides, the concentration at half-maximal activity (AC50) in [7], in assay [8], in [9] and in [10] was greater than 30 µM in each case.

One may read the AC50 as the midpoint of the concentration-response curve, whichever way the signal moves. A lower AC50 goes with greater potency.
